According to ChEMBL document CHEMBL5230122, “Natural products and other inhibitors of F1FO ATP synthase” (Eur J Med Chem, 2020):
pEC50, pIC50, pKi: −log10 of the molar value.

Key:
[1] = Binding affinity to mitochondrial ATP5A in mouse HT-22 cells measured after 15 mins by LC/MS/MS based pull-down assay; type: cell-based
Cortical neurone = test: Neuroprotective activity against rat Primary cortical neuron cells assessed as rescue of cell death incubated for 2 days by fluorescent live-dead assay; type: functional, cell-based; details: 48 h
[2] = Neuroprotective activity against amyloid beta induced cell death in rat Primary hippocampal neuron cells assessed as increase in cell viability incubated for 2 days by lactate dehydrogenase release assay; type: functional, cell-based; details: Hippocampal neurone, 48 h
[3] = Non-competitive inhibition of bovine heart mitochondrial F0F1-ATP synthase incubated for 25 mins by ATPase assay; type: mitochondria, Bos taurus, Mitochondria
T47D = test: Antiproliferative activity against human T47D assessed as inhibition of cell viability incubated for 72 hrs by CCK-8 assay; type: functional, cell-based
MCF7 = test: Antiproliferative activity against human MCF7 assessed as inhibition of cell viability incubated for 72 hrs by CCK-8 assay; type: functional, cell-based; details: MCF7, 72 h
CAKI-1 = test: Antiproliferative activity against human CAKI-1 cells assessed as reduction in cell proliferation incubated for 96 hrs by Cell TiterGlo assay; type: functional, cell-based; details: CAKI-1, 96 h
[4] = Inhibition of bovine heart mitochondrial F0F1-ATP synthase assessed as reduction in NADH oxidation for 40 mins by MitoTox Complex V OXPHOS activity microplate assay; type: mitochondria, Bos taurus, Mitochondria
[5] = Inhibition of thrombin-induced hyperpermeability of human HMEC-1 cells at 10 uM preincubated for 20 mins followed by thrombin addition and measured for 60 mins by transwell assay; type: functional; details: HMEC-1, 1.333 h, time 80 min
PC-12 [6] = test: Cytoprotective activity against KCN induced-toxicity in rat PC-12 cells assessed as reduction in cell death for 24 hrs by MTT assay; type: functional, cell-based; details: PC-12, 24 h
Rattus norvegicus = species on record: Rattus norvegicus; test: Inhibition of rat liver mitochondrial F0F1-ATP synthase hydrolytic activity at 5 uM in presence of MgATP; details: Mitochondria
PC-12 [7] = test: Cytoprotective activity against glutamate induced-toxicity in rat PC-12 cells assessed as reduction in cell death for 24 hrs by MTT assay; type: functional, cell-based; details: PC-12, 24 h
CL1-0 = test: Antiproliferative activity against human CL1-0 cells assessed as reduction in cell proliferation incubated for 48 hrs by xCELLigence RTCA system analysis; type: functional, cell-based; details: CL1-0, 48 h
A549 = test: Antiproliferative activity against human A549 cells assessed as reduction in cell proliferation incubated for 48 hrs by xCELLigence RTCA system analysis; type: functional, cell-based; details: A549, 48 h
HepG2 = test: Cytotoxicity against human HepG2 cells assessed as reduction in glucose induced mitochondrial toxicity by measuring ATP depletion incubated for 24 hrs by CellTiter-Glo luminescent cell viability assay; type: functional, cell-based; details: HepG2, 24 h
[8] = Inhibition of bovine heart mitochondrial F0F1-ATP synthase for 1 hr by microplate reader analysis; type: mitochondria, Bos taurus, Mitochondria
[9] = Inhibition of bovine heart mitochondria ATP synthase in presence of PEP, PK, LDH and NADH for 1 hrs by MitoTox microplate assay; set-up: species or system Bos taurus

## COc1cccc(/C=N/N(C(=O)C(F)(F)F)c2ccc(C)cc2C)c1 [J147]
[1]
  pEC50: 7.70
Cortical neurone
  pEC50: 7.60
[2]
  pEC50: 6.70

## NCCc1ccc(Oc2ccc(O)cc2)c(I)c1
[3]
  pIC50: 4.56

## CCC(C)N(C)C(=O)c1cc2ccccc2c(-c2ccccc2Cl)n1 (configuration not stated) [PK-11195]
T47D
  pIC50: 8.22
MCF7
  pIC50: 8.27

## Nc1ncnc2c1nc(Cl)n2[C@@H]1O[C@H](CO)[C@@H](O)[C@H]1O [8-CHLOROADENOSINE]
CAKI-1
  pIC50: 5.70

## C=C1CC[C@@]2(OC1)O[C@H]1C[C@H]3[C@@H]4CC=C5C[C@H](O)C[C@H](O[C@@H]6OC[C@H](O)[C@H](O)[C@H]6O[C@@H]6O[C@@H](C)[C@H](O)[C@@H](O)[C@H]6O)[C@]5(C)[C@H]4CC[C@]3(C)[C@H]1[C@@H]2C
[4]
  pKi: 5.00
[5]
  inhibition at 10 µM: 41.9%

## CCOC(=O)C1=C(C)NC2=C(C=Nc3ccccc3N2)[C@@H]1c1ccccc1[N+](=O)[O-]
PC-12 [6]
  pIC50: 8.10
Rattus norvegicus
  inhibition: 67%
PC-12 [7]
  pIC50: 7.54

## COc1cc(=O)oc(/C=C/C=C/C=C/C(C)=C/[C@]2(C)O[C@H](C)[C@](C)(O)[C@H]2O)c1C
CL1-0
  pIC50: 5.82
A549
  pIC50: 5.82

## Cc1oncc1C(=O)Nc1ccc(C(F)(F)F)cc1 [LEFLUNOMIDE]
HepG2
  pIC50: 3.96
[8]
  pIC50: 4.46

## CNC(=O)c1cc(Oc2ccc(NC(=O)Nc3ccc(Cl)c(C(F)(F)F)c3)cc2)ccn1 [SORAFENIB]
[9]
  pIC50: 5.60
